Measurements from PubChem BioAssay (NCI).
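Cells were grown in 96-well plates and exposed to each compound for 48 hours at five concentrations; endpoints were interpolated linearly between bracketing concentrations, or set to the highest concentration if not reached. Definition used: TGI = concentration required for complete inhibition of growth.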

Columns and labels:
Assay in all cases: growth of human tumour cells (NCI), 48 h
SF-268 CNS = system: SF-268 CNS
MOLT-4 leukemia = system: MOLT-4 leukemia
NCI/ADR-RES ovarian = system: NCI/ADR-RES ovarian
KM12 colon = system: KM12 colon
SR leukemia = system: SR leukemia
UACC-257 melanoma = system: UACC-257 melanoma
PC-3 prostate = system: PC-3 prostate
786-0 renal = system: 786-0 renal
SK-OV-3 ovarian = system: SK-OV-3 ovarian
RPMI-8226 leukemia = system: RPMI-8226 leukemia
NCI-H23 lung = system: NCI-H23 lung
SW-620 colon = system: SW-620 colon
BT-549 breast = system: BT-549 breast

Row | Compound | TGI (SF-268 CNS) | TGI (MOLT-4 leukemia) | TGI (NCI/ADR-RES ovarian) | TGI (KM12 colon) | TGI (SR leukemia) | TGI (UACC-257 melanoma) | TGI (PC-3 prostate) | TGI (786-0 renal) | TGI (SK-OV-3 ovarian) | TGI (RPMI-8226 leukemia) | TGI (NCI-H23 lung) | TGI (SW-620 colon) | TGI (BT-549 breast)
1 | O=C1CCC[C@@H]2NC[C@@H](c3ccc4c(c3)OCO4)[C@H]12 | > 25 µM | > 25 µM | > 25 µM | > 25 µM | > 25 µM | > 25 µM | > 25 µM | > 25 µM | > 25 µM | > 25 µM | > 25 µM | – | –
2 | COc1cc(-c2cc(=O)c3cc4c(cc3[nH]2)OCO4)cc(OC)c1O | > 10 µM | > 10 µM | > 10 µM | > 10 µM | > 10 µM | > 10 µM | > 10 µM | > 10 µM | > 10 µM | > 10 µM | > 10 µM | > 10 µM | –
3 | CC1=C2C(=O)NN=C2CCN1c1ccc(Br)cc1 | > 100 µM | > 100 µM | > 100 µM | > 100 µM | – | > 100 µM | > 100 µM | > 100 µM | > 100 µM | – | > 100 µM | > 100 µM | 75.1 µM
4 | CCN(CC)CCc1c2c(nc3ccccc13)C(=O)c1cccnc1C2=O | > 100 µM | – | > 100 µM | 6.57 µM | 0.993 µM | 2.91 µM | 18.6 µM | 9.56 µM | 4.22 µM | 6.43 µM | 8.53 µM | 12.7 µM | 7.56 µM
5 | Cc1ccc(C(=O)Nc2ccc(CP(=O)(O)O)cc2CP(=O)(O)O)cc1NC(=O)c1cccc(N)c1 | > 100 µM | > 100 µM | > 100 µM | > 100 µM | – | > 100 µM | > 100 µM | > 100 µM | > 100 µM | > 100 µM | > 100 µM | > 100 µM | > 100 µM
6 | COc1ccc(-c2cc(-c3ccco3)c(C#N)c(=S)n2C2OC(COC(C)=O)C(OC(C)=O)C(OC(C)=O)C2OC(C)=O)cc1 (centres undefined) | 23.5 µM | > 100 µM | 37.7 µM | 33.4 µM | – | – | 16.5 µM | 10.6 µM | 26.8 µM | 22.8 µM | – | 93.2 µM | 8.23 µM
7 | COc1cc2c(cc1OC)C1=Cc3cc(OC)c(OC)cc3C(C)N1C=C2 (centres undefined) | > 100 µM | > 100 µM | > 100 µM | > 100 µM | – | > 100 µM | > 100 µM | > 100 µM | > 100 µM | > 100 µM | > 100 µM | > 100 µM | > 100 µM
8 | Cc1ccc(-c2c(C#N)c(-c3ccccc3)n(NS(=O)(=O)c3ccccc3)c(=O)c2C#N)cc1 | > 100 µM | 72.6 µM | > 100 µM | > 100 µM | – | > 100 µM | > 100 µM | > 100 µM | > 100 µM | 55.3 µM | – | > 100 µM | > 100 µM
9 | c1ccc2c(c1)OC(N1CCCC1)c1cnc(N3CCCC3)nc1-2 (centres undefined) | > 100 µM | 70.5 µM | – | > 100 µM | > 100 µM | 40 µM | > 100 µM | > 100 µM | > 100 µM | 45.8 µM | > 100 µM | > 100 µM | 60.9 µM
10 | CC[C@]1(Cc2ccc(OC)c(OC)c2)CN(S(=O)(=O)c2ccc(C)cc2)C[C@@H]1OC(C)=O | > 100 µM | > 100 µM | > 100 µM | > 100 µM | > 100 µM | > 100 µM | > 100 µM | > 100 µM | > 100 µM | > 100 µM | > 100 µM | > 100 µM | –
11 | C=C(C)C12CC(COC(=O)c3ccccc3)C34OC5(OC1C3C1OC1(CO)C(O)C1(O)C(OC(=O)c3ccccc3)C(C)C(C(C)CCCCCCC5O)C14)O2 (centres undefined) | > 100 µM | – | > 100 µM | > 100 µM | > 31.6 µM | > 100 µM | > 100 µM | > 100 µM | > 100 µM | > 75.8 µM | > 100 µM | – | > 100 µM
12 | Cc1nnc(Nc2ccccc2)o1 | > 100 µM | > 100 µM | > 100 µM | > 100 µM | > 100 µM | > 100 µM | > 100 µM | > 100 µM | > 100 µM | > 100 µM | > 100 µM | > 100 µM | –
13 | COC(=O)C(/C(=N/NC(N)=O)C(=O)Nc1ccc(C)cc1)c1nc2ccc([N+](=O)[O-])cc2[nH]c1=O (centres undefined) | > 100 µM | > 100 µM | > 100 µM | > 100 µM | > 100 µM | – | > 100 µM | > 100 µM | > 100 µM | > 100 µM | – | > 100 µM | > 100 µM
14 | CC1(C)OCC(COC(=O)C=[N+]=[N-])O1 (centres undefined) | > 100 µM | > 100 µM | – | > 100 µM | > 100 µM | > 100 µM | > 100 µM | > 100 µM | > 100 µM | > 100 µM | > 100 µM | > 100 µM | > 100 µM
15 | COc1ccc(C2CC(c3c(O)ccc4ccccc34)=NN2c2ccc([N+](=O)[O-])cc2[N+](=O)[O-])cc1OC (centres undefined) | > 100 µM | 21.5 µM | 17.4 µM | > 76.6 µM | – | > 93.9 µM | > 70.3 µM | > 100 µM | > 88 µM | 15.8 µM | > 85.4 µM | > 100 µM | > 100 µM
16 | Cc1nnc2n1N=C(c1cc(F)c(Cl)cc1Cl)/C(=C/c1ccc(Cl)cc1)S2 | > 100 µM | > 100 µM | 34.2 µM | 25.4 µM | – | 44.6 µM | 80.6 µM | 36.8 µM | > 100 µM | 44 µM | 48.8 µM | > 100 µM | 49 µM
17 | C[C@@]12[C@H]3CC[C@@H]1[C@H](O)C(=O)N2CC3 | > 100 µM | > 100 µM | > 100 µM | > 100 µM | > 100 µM | > 100 µM | > 100 µM | > 100 µM | > 100 µM | > 100 µM | > 100 µM | > 100 µM | –
18 | COC(=O)C1(C(=O)OC)CC2=C(S(=O)(=O)c3ccccc3)C[C@H](S(=O)(=O)c3ccccc3)[C@H]2C1 | > 100 µM | > 100 µM | > 100 µM | > 100 µM | – | > 100 µM | > 100 µM | > 100 µM | > 100 µM | > 100 µM | > 100 µM | > 100 µM | > 100 µM
